# Data as given in patent US8853420B2, “Compounds” (Boehringer Ingelheim International GmbH, priority 2008, dated 2014).
# Target: T1, Xenopus laevis Aurora B/INCENP complex (Xenopus laevis, UniProt Q6DE08)
# T1 construct: equipped at the N-terminal position with a GST tag (amino acids 60-361); GST (N, cleaved yes); made in house; host or cells: E. coli BL21 (DE3)
# Experiment: Aurora-B kinase assay (radioactive enzyme inhibition assay)
# Format: biochemical
# Conditions: test substance at 1 μM; percentage of the positive control (maximum value without test substance)
# Text: Example Aurora-B Kinase Assay
# A radioactive enzyme inhibition assay was developed using E. coli-expressed recombinant Xenopus laevis Aurora B wild-type protein equipped at the N-terminal position with a GST tag (amino acids 60-361) in a complex with Xenopus laevis INCENP (amino acids 790-847), which is obtained from bacteria and purified. In equivalent manner a Xenopus laevis Aurora B mutant (G96V) in a complex with Xenopus laevis INCENP^790-847 may also be used.
# Expression and Purification
# The coding sequence for Aurora-B^60-361 from Xenopus laevis is cloned into a modified version of pGEX-6T (Amersham Biotech) via BamHI and SalI cutting sites. The vector contains two cloning cassettes which are separated by a ribosomal binding site, allowing bi-cistronic expression. In this configuration Xenopus laevis Aurora B is expressed by the first cassette, and the Xenopus laevis INCENP^790-847 is expressed by the second cassette. The resulting vector is pAUB-IN^847.
# First of all the E. coli strain BL21 (DE3) is co-transformed with pUBS520 helper plasmid and pAUB-IN^847, after which protein expression is induced using 0.3 mM IPTG at an OD600 of 0.45-0.7. The expression is then continued for approx. 12-16 h at 23-25° C. with agitation.
# The bacteria are then removed by centrifuging and the pellet is lysed in lysis buffer (50 mM Tris/Cl pH 7.6, 300 mM NaCl, 1 mM DTT, 1 mM EDTA, 5% glycerol, Roche Complete Protease Inhibitor tablets) using ultrasound, using 20-30 mL lysis buffer per liter of E. coli culture. The lysed material is freed from debris by centrifugation (12000 rpm, 45-60 min, JA20 rotor). The supernatant is incubated with 300 μL of equilibrated GST Sepharose Fast Flow (Amersham Biosciences) per liter of E. coli culture for 4-5 h at 4° C. Then the column material is washed with 30 volumes of lysis buffer and then equilibrated with 30 volumes of cleavage buffer (50 mM Tris/Cl pH 7.6, 150 mM NaCl, 1 mM DTT, 1 mM EDTA). To cleave the GST tag from Aurora B, 10 units of Prescission Protease (Amersham Biosciences) are used per milligram of substrate and the mixture is incubated for 16 h at 4° C. The supernatant which contains the cleavage product is loaded onto a 6 mL Resource Q column (Amersham Biosciences) equilibrated with ion exchange buffer (50 mM Tris/Cl pH 7.6, 150 mM NaCl, 1 mM DTT, 1 mM EDTA). The Aurora B/INCENP complex is caught as it flows through, then concentrated and loaded onto a Superdex 200 size exclusion chromatography (SEC) column equilibrated with SEC buffer (10 mM Tris/Cl pH 7.6, 150 mM NaCl, 1 mM DTT, 1 mM EDTA). Fractions which contain the AuroraB/INCENP complex are collected and concentrated using Vivaspin concentrators (molecular weight exclusion 3000-5000 Da) to a final concentration of 12 mg/mL. Aliquots (e.g. 240 ng/μL) for kinase assays are transferred from this stock solution into freezing buffer (50 mM Tris/Cl pH 8.0, 150 mM NaCl, 0.1 mM EDTA, 0.03% Brij-35, 10% glycerol, 1 mM DTT) and stored at −80° C.
# Test substances are placed in a polypropylene dish (96 wells, Greiner #655 201), in order to cover a concentration frame of 10 μM-0.0001 μM. The final concentration of DMSO in the assay is 5%. 30 μL of protein mix (50 mM tris/Cl pH 7.5, 25 mM MgCl2, 25 mM NaCl, 167 μM ATP, 10 ng Xenopus laevis Aurora B/INCENP complex in freezing buffer) are pipetted into the 10 μl of test substance provided in 25% DMSO and this is incubated for 15 min at RT. Then 10 μL of peptide mix (100 mM tris/Cl pH 7.5, 50 mM MgCl2, 50 mM NaCl, 5 μM NaF, 5 μM DTT, 1 μCi gamma-P33-ATP [Amersham], 50 μM substrate peptide [biotin-[…] or multimers thereof, or biotin-[…] or multimers thereof, or biotin-[…]]) are added. The reaction is incubated for 75 min (ambient temperature) and stopped by the addition of 180 μL of 6.4% trichloroacetic acid and incubated for 20 min on ice. […]
# T1 sequence (Q6DE08 60-361): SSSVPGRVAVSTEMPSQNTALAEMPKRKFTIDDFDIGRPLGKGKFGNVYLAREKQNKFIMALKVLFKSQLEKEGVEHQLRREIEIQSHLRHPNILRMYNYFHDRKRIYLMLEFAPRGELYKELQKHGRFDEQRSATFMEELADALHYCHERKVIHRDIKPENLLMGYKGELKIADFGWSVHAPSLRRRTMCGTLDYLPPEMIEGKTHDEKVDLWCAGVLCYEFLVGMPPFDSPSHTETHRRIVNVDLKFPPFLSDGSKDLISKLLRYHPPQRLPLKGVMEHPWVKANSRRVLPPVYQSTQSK
# T1 sequence (O13024 790-847 partner limits assumed): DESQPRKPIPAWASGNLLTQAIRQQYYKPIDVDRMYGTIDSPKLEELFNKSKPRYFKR
row,Compound,remaining activity at 1 µM [%]
1,CCNc1ncc(-c2ccc3c(c2)NC(=O)/C3=C(\Nc2ccc(CN(C)C)cc2)c2ccccc2)cn1 [Example 52],2.78
2,CC(=O)Nc1ccc(-c2ccc3c(c2)NC(=O)/C3=C(\Nc2ccc(CN(C)C)cc2)c2ccccc2)cn1 [Example 62],1.96
3,CC(=O)c1cncc(-c2ccc3c(c2)NC(=O)/C3=C(\Nc2ccc(CN(C)C)cc2)c2ccccc2)c1 [Example 41],13.5
4,CN(C)Cc1ccc(N/C(=C2\C(=O)Nc3cc(-c4cccc(S(=O)(=O)N(C)C)c4)ccc32)c2ccccc2)cc1 [Example 65],27.6
5,Cc1cnccc1-c1ccc2c(c1)NC(=O)/C2=C(\Nc1ccc(CN(C)C)cc1)c1ccccc1 [Example 20],107
6,CCCNc1ccc(-c2ccc3c(c2)NC(=O)/C3=C(\Nc2ccc(CN(C)C)cc2)c2ccccc2)cn1 [Example 57],5.74
7,CC(C)Nc1ccc(-c2ccc3c(c2)NC(=O)/C3=C(\Nc2ccc(CN(C)C)cc2)c2ccccc2)cn1 [Example 58],8.01
8,CN(C)Cc1ccc(N/C(=C2\C(=O)Nc3cc(-c4ccc(NC5CC5)nc4)ccc32)c2ccccc2)cc1 [Example 59],9.19
9,COc1cncc(-c2ccc3c(c2)NC(=O)/C3=C(\Nc2ccc(CN(C)C)cc2)c2ccccc2)c1 [Example 63],11
10,CN(C)Cc1ccc(N/C(=C2\C(=O)Nc3cc(-c4ccc(S(C)(=O)=O)cc4)ccc32)c2ccccc2)cc1 [Example 12],40
11,CN(C)Cc1ccc(N/C(=C2\C(=O)Nc3cc(-c4ccc(N)nc4)ccc32)c2ccccc2)cc1 [Example 66],18.3
12,CN(C)Cc1ccc(N/C(=C2\C(=O)Nc3cc(-c4cn[nH]c4)ccc32)c2ccccc2)cc1 [Example 61],14.1
13,CC(C)Nc1ncc(-c2ccc3c(c2)NC(=O)/C3=C(\NC2CCOCC2)c2ccccc2)cn1 [Example 77],96.2
14,CN(C)Cc1ccc(N/C(=C2\C(=O)Nc3cc(-c4ccc(C(N)=O)cc4)ccc32)c2ccccc2)cc1 [Example 43],102
15,CC(C)Nc1ncc(-c2cc3c(cc2F)/C(=C(/Nc2ccc(CN(C)C)cc2)c2ccccc2)C(=O)N3)cn1 [Example 73],5.59
16,CC(C)Nc1ncc(-c2ccc3c(c2)NC(=O)/C3=C(\Nc2ccc(OCCN3CCCC3)cc2)c2ccccc2)cn1 [Example 88],3.13
17,CN(C)Cc1ccc(N/C(=C2\C(=O)Nc3cc(-c4cnc(N(C)C)nc4)ccc32)c2ccccc2)cc1 [Example 44],27.9
18,CN(C)Cc1ccc(N/C(=C2\C(=O)Nc3cc(-c4cnc(NCC(F)F)nc4)ccc32)c2ccccc2)cc1 [Example 47],1.59
19,CN(C)Cc1ccc(N/C(=C2\C(=O)Nc3cc(-c4cnc5ccccc5c4)ccc32)c2ccccc2)cc1 [Example 40],34.7
20,CN(C)Cc1ccc(N/C(=C2\C(=O)Nc3cc(-c4cnc(NC5CC5)nc4)ccc32)c2ccccc2)cc1 [Example 48],3.44

# Further lines, results first:
row,remaining activity at 1 µM [%],Compound
1,3.21,C[C@H](CO)NC(=O)C#Cc1ccc2c(c1)NC(=O)/C2=C(\Nc1ccc(CN2CCCC2)cc1)c1ccccc1 [Example 172]
2,2.35,COc1cc(N/C(=C2\C(=O)Nc3cc(-c4ccc(NC(C)C)nc4)ccc32)c2ccccc2)ccc1C(=O)N(C)CCN(C)C [Example 111]
3,3.68,O=C(C#Cc1ccc2c(c1)NC(=O)/C2=C(\Nc1ccc(CN2CCCC2)cc1)c1ccccc1)Nc1cccc(Cl)c1 [Example 173]
4,4.34,CC(C)Nc1ccc(-c2ccc3c(c2)NC(=O)/C3=C(\Nc2ccc(C(=O)N3CCC(N(C)C)CC3)cc2)c2ccccc2)cn1 [Example 128]
5,1.39,CCNC(=O)C#Cc1ccc2c(c1)NC(=O)/C2=C(\Nc1ccc(N2CCN(C)CC2)cc1)c1ccccc1 [Example 160]
6,1.93,CN(C)Cc1ccc(N/C(=C2\C(=O)Nc3cc(C#CC(=O)NCCO)ccc32)c2ccccc2)cc1 [Example 166]
7,3.04,CCNC(=O)C#Cc1ccc2c(c1)NC(=O)/C2=C(\Nc1ccc(CN2CCCC2)cc1)c1ccccc1 [Example 175]
8,2.75,CC(C)Nc1ccc(-c2ccc3c(c2)NC(=O)/C3=C(\Nc2ccc(C(=O)N3CCCN(C)CC3)cc2)c2ccccc2)cn1 [Example 120]
9,1.43,CC(C)Nc1ccc(-c2ccc3c(c2)NC(=O)/C3=C(\Nc2ccc(C(=O)NCCN(C)C)cc2)c2ccccc2)cn1 [Example 134]
10,2.62,CN1CCN(c2ccc(N/C(=C3\C(=O)Nc4cc(C#CC(=O)NC5CCC5)c(S(=O)(=O)N5CCC(F)(F)C5)cc43)c3ccccc3)cc2)CC1 [Example 154]
11,1.2,CNCC#Cc1cc2c(cc1S(=O)(=O)N1CC(F)(F)C1)/C(=C(/Nc1ccccc1)c1ccccc1)C(=O)N2 [Example 153]
12,1.98,CNCC#Cc1cc2c(cc1S(=O)(=O)c1ccc(F)cc1)/C(=C(/Nc1ccccc1)c1ccccc1)C(=O)N2 [Example 157]
13,8.61,CN(C)Cc1ccc(N/C(=C2\C(=O)Nc3cc(C#CC(=O)NC4CCC4)c(F)cc32)c2ccccc2)cc1 [Example 155]
14,3.25,CC(C)Nc1ccc(-c2ccc3c(c2)NC(=O)/C3=C(\Nc2ccc(C(=O)N3CCN[C@H](C)C3)cc2)c2ccccc2)cn1 [Example 115]
15,4.55,CC(C)Nc1ccc(-c2ccc3c(c2)NC(=O)/C3=C(\Nc2ccc(C(=O)N3CCN(C4CCOCC4)CC3)cc2)c2ccccc2)cn1 [Example 129]
16,4.33,CCNC(=O)C#Cc1cc2c(cc1S(=O)(=O)N1CC(F)(F)C1)/C(=C(/Nc1ccc(N3CCN(C)CC3)cc1)c1ccccc1)C(=O)N2 [Example 152]
17,0.55,CC(C)Nc1ccc(-c2ccc3c(c2)NC(=O)/C3=C(\Nc2ccc(C(=O)N3CCN[C@@H](C)C3)cc2)c2ccccc2)cn1 [Example 133]
18,2.07,CN(C)Cc1ccc(N/C(=C2\C(=O)Nc3cc(C#CC(=O)NC4CC4)ccc32)c2ccccc2)cc1 [Example 159]
19,3.62,CC(C)Nc1ccc(-c2ccc3c(c2)NC(=O)/C3=C(\Nc2ccc(C(C)(C)C(=O)N3CC[C@@H](N(C)C)C3)cc2)c2ccccc2)cn1 [Example 101]
20,1.45,COc1cc(N/C(=C2\C(=O)Nc3cc(-c4ccc(NC(C)C)nc4)ccc32)c2ccccc2)ccc1C(=O)N1C[C@H]2C[C@@H]1CN2C [Example 108]
21,2.69,CC(C)Nc1ccc(-c2ccc3c(c2)NC(=O)/C3=C(\Nc2ccc(C(=O)N3CCN(C(C)C)CC3)cc2)c2ccccc2)cn1 [Example 123]
22,3.31,CC(C)Nc1ccc(-c2ccc3c(c2)NC(=O)/C3=C(\Nc2ccc(C(=O)N3CCC(N4CCOCC4)CC3)cc2)c2ccccc2)cn1 [Example 121]
23,1.89,CNC(=O)C#Cc1cc2c(cc1S(=O)(=O)c1ccc(F)cc1)/C(=C(/Nc1ccc(CN(C)C)cc1)c1ccccc1)C(=O)N2 [Example 151]
24,5.84,CC(C)Nc1ccc(-c2ccc3c(c2)NC(=O)/C3=C(\Nc2ccc(C(=O)N3CCN(C4CC4)CC3)cc2)c2ccccc2)cn1 [Example 126]
